# Laboratory results published in patent US9981916B2 (Genentech, Inc., priority 2013, dated 2018).
# Molecular target: T1, RORc ligand binding domain (Homo sapiens, UniProt P51449)
# T1 construct: host or cells: E. coli
# T1 sequence (P51449 269-508 limits assumed): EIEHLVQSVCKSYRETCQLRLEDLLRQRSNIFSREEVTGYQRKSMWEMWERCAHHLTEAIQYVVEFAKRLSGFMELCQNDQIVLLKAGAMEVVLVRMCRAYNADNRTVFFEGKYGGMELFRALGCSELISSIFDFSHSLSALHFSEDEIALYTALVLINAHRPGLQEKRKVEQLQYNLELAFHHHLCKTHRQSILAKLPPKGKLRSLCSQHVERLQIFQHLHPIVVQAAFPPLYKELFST
# Test: In vitro RORc ligand binding assay (25-[3H]hydroxycholesterol displacement, filter binding)
# Details: 6 nM 25-[3H]hydroxycholesterol, 0.6 ug/mL RORc receptor, 3 h at 25° C.
# Summary of the method: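 Filter-binding displacement of 6 nM 25-[3H]hydroxycholesterol from RORc receptor (0.6 ug/mL) in 50 mM HEPES pH 7.4, 150 mM NaCl, 5 mM MgCl2, 1 mM DTT, 0.01% BSA, 5% DMSO; 3 h at 25° C. NSB defined with 1 uM 25-hydroxycholesterol; scintillation counting gave Kiapp, IC50 or % inhibition (screening at 1 and 10 uM).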
row,Compound,IC50 [nM]
1,"CC1(C)[C@@H]2CC[C@@]1(C(=O)N1CCC(C#N)C1)c1nnc(-c3c(F)cccc3F)cc12 (stereo partly drawn) [Example 245, 1-((5S,8S)-3-(2,6-difluorophenyl)-9,9-dimethyl-5,6,7,8-tetrahydro-5,8-methanocinnoline-8-carbonyl)pyrrolidine-3-carbonitrile]",126
2,"COC[C@@H]1CCCN1C(=O)[C@]12CC[C@H](c3cc(-c4c(F)cccc4F)nnc31)C2(C)C [Example 246, ((5S,8S)-3-(2,6-difluorophenyl)-9,9-dimethyl-5,6,7,8-tetrahydro-5,8-methanocinnolin-8-yl)((S)-2-(methoxymethyl)pyrrolidin-1-yl)methanone]",2840
3,"CC1(C)[C@@H]2CC[C@@]1(C(=O)N1C3CCC1CC3)c1nnc(-c3c(F)cccc3F)cc12 [Example 247, 7-azabicyclo[2.2.1]heptan-7-yl((5S,8S)-3-(2,6-difluorophenyl)-9,9-dimethyl-5,6,7,8-tetrahydro-5,8-methanocinnolin-8-yl)methanone]",1110
4,"CC1(C)[C@@H]2CC[C@@]1(C(=O)N1CCC(C(N)=O)C1)c1nnc(-c3c(F)cccc3F)cc12 (stereo partly drawn) [Example 249, 1-((5S,8S)-3-(2,6-difluorophenyl)-9,9-dimethyl-5,6,7,8-tetrahydro-5,8-methanocinnoline-8-carbonyl)pyrrolidine-3-carboxamide]",3120
5,"CC1(C)[C@@H]2CC[C@@]1(C(=O)N1CCC[C@H]1C(N)=O)c1nnc(-c3c(F)cccc3F)cc12 [Example 250, (S)-1-((5S,8S)-3-(2,6-difluorophenyl)-9,9-dimethyl-5,6,7,8-tetrahydro-5,8-methanocinnoline-8-carbonyl)pyrrolidine-2-carboxamide]",3090
6,"Cn1ncnc1[C@@]12CC[C@@H](c3cc(-c4c(F)cccc4F)nnc31)C2(C)C [Example 251, (5R,8R)-3-(2,6-difluorophenyl)-9,9-dimethyl-8-(1-methyl-1H-1,2,4-triazol-5-yl)-5,6,7,8-tetrahydro-5,8-methanocinnoline]",610
7,"CC1(C)[C@@H]2CC[C@@]1(N1CCNC1=O)c1nnc(-c3c(F)cccc3F)cc12 [Example 252, 1-((5S,8S)-3-(2,6-difluorophenyl)-9,9-dimethyl-5,6,7,8-tetrahydro-5,8-methanocinnolin-8-yl)imidazolidin-2-one]",1580
8,"CC1(C)[C@@H]2CC[C@@]1(N1CCCC1=O)c1nnc(-c3c(F)cccc3F)cc12 [Example 253, 1-((5S,8S)-3-(2,6-difluorophenyl)-9,9-dimethyl-5,6,7,8-tetrahydro-5,8-methanocinnolin-8-yl)pyrrolidin-2-one]",961
9,"CC1(C)[C@@H]2CC[C@@]1(N1CCOC1=O)c1nnc(-c3c(F)cccc3F)cc12 [Example 254, 3-((5S,8S)-3-(2,6-difluorophenyl)-9,9-dimethyl-5,6,7,8-tetrahydro-5,8-methanocinnolin-8-yl)oxazolidin-2-one]",866
10,"CC1(C)[C@H]2CC[C@]1(c1nnc(N)o1)c1nnc(-c3c(F)cccc3F)cc12 [Example 255, 5-((5R,8R)-3-(2,6-difluorophenyl)-9,9-dimethyl-5,6,7,8-tetrahydro-5,8-methanocinnolin-8-yl)-1,3,4-oxadiazol-2-amine]",822
11,"CC(C)(C)OC(=O)N[C@]12CC[C@H](c3cc(-c4c(F)cccc4F)nnc31)C2(C)C [Example 256, tert-butyl ((5S,8S)-3-(2,6-difluorophenyl)-9,9-dimethyl-5,6,7,8-tetrahydro-5,8-methanocinnolin-8-yl)carbamate]",2330
12,"CC1(C)[C@H]2CC[C@]1(N1CCOC1=O)c1nnc(-c3c(F)cccc3F)cc12 [Example 257, 3-((5R,8R)-3-(2,6-difluorophenyl)-9,9-dimethyl-5,6,7,8-tetrahydro-5,8-methanocinnolin-8-yl)oxazolidin-2-one]",438
13,"CN(CCC#N)C(=O)[C@]12CC[C@H](c3cc(-c4c(F)cccc4F)nnc31)C2(C)C [Example 258, (5S,8S)-N-(2-cyanoethyl)-3-(2,6-difluorophenyl)-N,9,9-trimethyl-5,6,7,8-tetrahydro-5,8-methanocinnoline-8-carboxamide]",1130
14,"CC1(C)[C@@H]2CC[C@@]1(C(=O)N1CC(C#N)C1)c1nnc(-c3c(F)cccc3F)cc12 [Example 259, 1-((5S,8S)-3-(2,6-difluorophenyl)-9,9-dimethyl-5,6,7,8-tetrahydro-5,8-methanocinnoline-8-carbonyl)azetidine-3-carbnitrite]",345
15,"Cc1nnc(N(CCN(C)C)C[C@@]23CC[C@@H](c4cc(-c5c(F)cccc5F)nnc42)C3(C)C)o1 [Example 260, N1-(((5R,8S)-3-(2,6-difluorophenyl)-9,9-dimethyl-5,6,7,8-tetrahydro-5,8-methanocinnolin-8-yl)methyl)-N2,N2-dimethyl-N1-(5-methyl-1,3,4-oxadiazol-2-yl)ethane-1,2-diamine]",3410
16,"CC1(C)[C@@H]2CC[C@@]1(C(=O)N1C3CCC1CC(O)C3)c1nnc(-c3c(F)cccc3F)cc12 (stereo partly drawn) [Example 261, ((5S,8S)-3-(2,6-difluorophenyl)-9,9-dimethyl-5,6,7,8-tetrahydro-5,8-methanocinnolin-8-yl)(3-hydroxy-8-azabicyclo[3.2.1]octan-8-yl)methanone]",1140
17,"CC1(C)[C@@H]2CC[C@@]1(C(=O)N1CCC(CCO)C1)c1nnc(-c3c(F)cccc3F)cc12 (stereo partly drawn) [Example 262, ((5S,8S)-3-(2,6-difluorophenyl)-9,9-dimethyl-5,6,7,8-tetrahydro-5,8-methanocinnolin-8-yl)(3-(2-hydroxyethyl)pyrrolidin-1-yl)methanone]",314
18,"Cn1nc([C@]23CC[C@H](c4cc(-c5c(F)cccc5F)nnc42)C3(C)C)oc1=O [Example 263, 5-((5S,8S)-3-(2,6-difluorophenyl)-9,9-dimethyl-5,6,7,8-tetrahydro-5,8-methanocinnolin-8-yl)-3-methyl-1,3,4-oxadiazol-2(3H)-one]",471
19,"CC1(C)[C@@H]2CC[C@@]1(C(=O)N1CC(CC#N)C1)c1nnc(-c3c(F)cccc3F)cc12 [Example 264, 2-(1-((5S,8S)-3-(2,6-difluorophenyl)-9,9-dimethyl-5,6,7,8-tetrahydro-5,8-methanocinnoline-8-carbonyl)azetidin-3-yl)acetonitrile]",307
20,"CN(C(=O)[C@]12CC[C@H](c3cc(-c4c(F)cccc4F)nnc31)C2(C)C)c1ccccn1 [Example 265, (5S,8S)-3-(2,6-difluorophenyl)-N,9,9-trimethyl-N-(pyridin-2-yl)-5,6,7,8-tetrahydro-5,8-methanocinnoline-8-carboxamide]",1040
21,"Cc1nnc(N(Cc2ccccc2)C[C@@]23CC[C@@H](c4cc(-c5c(F)cccc5F)nnc42)C3(C)C)o1 [Example 266, N-benzyl-N-(((5R,8S)-3-(2,6-difluorophenyl)-9,9-dimethyl-5,6,7,8-tetrahydro-5,8-methanocinnolin-8-yl)methyl)-5-methyl-1,3,4-oxadiazol-2-amine]",214
22,"COCCn1nccc1[C@@]12CC[C@@H](c3cc(-c4c(F)cccc4F)nnc31)C2(C)C [Example 267, (5R,8S)-3-(2,6-difluorophenyl)-8-(1-(2-methoxyethyl)-1H-pyrazol-5-yl)-9,9-dimethyl-5,6,7,8-tetrahydro-5,8-methanocinnoline]",339
23,"CC1(C)[C@H]2CC[C@]1(CN1CCNC1=O)c1nnc(-c3c(F)cccc3F)cc12 [Example 268, 1-(((5R,8S)-3-(2,6-difluorophenyl)-9,9-dimethyl-5,6,7,8-tetrahydro-5,8-methanocinnolin-8-yl)methyl)imidazolidin-2-one]",321
24,"CC1(C)[C@H]2CC[C@]1(c1ccnn1CCO)c1nnc(-c3c(F)cccc3F)cc12 [Example 269, 2-(5-((5R,8S)-3-(2,6-difluorophenyl)-9,9-dimethyl-5,6,7,8-tetrahydro-5,8-methanocinnolin-8-yl)-1H-pyrazol-1-yl)ethanol]",423
25,"Cc1nnc(OC(=O)[C@]23CC[C@H](c4cc(-c5c(F)cccc5F)nnc42)C3(C)C)o1 [Example 270, (5S,8S)-5-methyl-1,3,4-oxadiazol-2-yl 3-(2,6-difluorophenyl)-9,9-dimethyl-5,6,7,8-tetrahydro-5,8-methanocinnoline-8-carboxylate]",1380
26,"CCN(C(=O)CO)C(C)(C)[C@@]12CC[C@@H](c3cc(-c4c(F)cccc4F)nnc31)C2(C)C [Example 271, N-(2-((5R,8S)-3-(2,6-difluorophenyl)-9,9-dimethyl-5,6,7,8-tetrahydro-5,8-methanocinnolin-8-yl)propan-2-yl)-N-ethyl-2-hydroxyacetamide]",189
27,"CC1(C)[C@H]2CC[C@]1(CN(CCO)c1ncccn1)c1nnc(-c3c(F)cccc3F)cc12 [Example 272, 2-((((5R,8S)-3-(2,6-difluorophenyl)-9,9-dimethyl-5,6,7,8-tetrahydro-5,8-methanocinnolin-8-yl)methyl)(pyrimidin-2-yl)amino)ethanol]",124
28,"CC1(C)[C@H]2CC[C@]1(CN1CCCC1=O)c1nnc(-c3c(F)cccc3F)cc12 [Example 273, 1-(((5R,8S)-3-(2,6-difluorophenyl)-9,9-dimethyl-5,6,7,8-tetrahydro-5,8-methanocinnolin-8-yl)methyl)pyrrolidin-2-one]",453
29,"COC(=O)N(C)[C@@]12CC[C@@H](c3cc(-c4c(F)cccc4F)nnc31)C2(C)C [Example 274, methyl ((5R,8R)-3-(2,6-difluorophenyl)-9,9-dimethyl-5,6,7,8-tetrahydro-5,8-methanocinnolin-8-yl)(methyl)carbamate]",301
